According to ChEMBL document CHEMBL5036362, “Salidroside Promotes Sensitization to Doxorubicin in Human Cancer Cells by Affecting the PI3K/Akt/HIF Signal Pathway and Inhibiting the Expression of Tumor-Resistance-Related Proteins” (J Nat Prod, 2022):
The source made the active and inactive calls. No cut-off for these calls is given here.

What was measured:
[1] = Toxicity in BALB/c nude mouse xenografted with human HeLa cells assessed as inflammation in myocardial tissue at 1 mg/kg, ip administered every 2 days for 18 days by H and E staining; assay type: organism-based, Myocardium/plasma; settings: in vivo, 432 h, time 18 day
[2] = Toxicity in BALB/c nude mouse xenografted with human HeLa cells assessed as induction of incontinence at 1 mg/kg, ip administered every 2 days for 18 days; assay type: organism-based; settings: in vivo, 432 h, time 18 day
HeLa [3] = experiment: Induction of morphological change in human HeLa cells assessed as cell shrinkage measured after 48 hrs by CCK-8 assay; assay type: functional, cell-based
HeLa [4] = experiment: Cytotoxicity against human HeLa cells assessed as reduction in cell viability measured after 48 hrs by CCK-8 assay; assay type: functional
[5] = Induction of MDR1 gene expression in human HeLa cells by qRT-PCR analysis; assay type: functional
HeLa [6] = experiment: Antimigratory activity against human HeLa cells at 0.22 uM measured upto 48 hrs by electron microscope based Wound healing assay relative to control; assay type: functional; settings: time hrs <=48
[7] = Toxicity in BALB/c nude mouse xenografted with human HeLa cells assessed as change in body weight at 1 mg/kg, ip administered every 2 days for 18 days; assay type: organism-based; settings: in vivo, 432 h, time 18 day
[8] = Toxicity in BALB/c nude mouse xenografted with human HeLa cells assessed as induction of fainting at 1 mg/kg, ip administered every 2 days for 18 days; assay type: organism-based; settings: in vivo, 432 h, time 18 day
HeLa [9] = experiment: Induction of morphological change in human HeLa cells assessed as reduction in size measured after 48 hrs by CCK-8 assay; assay type: functional, cell-based
[10] = Toxicity in BALB/c nude mouse xenografted with human HeLa cells assessed as induction of breathing difficulties at 1 mg/kg, ip administered every 2 days for 18 days; assay type: organism-based; settings: in vivo, 432 h, time 18 day
[11] = Toxicity in BALB/c nude mouse xenografted with human HeLa cells assessed as induction of convulsions at 1 mg/kg, ip administered every 2 days for 18 days; assay type: organism-based; settings: in vivo, 432 h, time 18 day
HeLa [12] = experiment: Antitumor activity against human HeLa cells xenografted in BALB/c nude mouse assessed as tumor growth inhibition at 1 mg/kg, ip administered every 2 days for 18 days by firefly luciferase based bioluminescence assay; assay type: functional, organism-based; settings: time 18.0 day
[13] = Toxicity in BALB/c nude mouse xenografted with human HeLa cells assessed as induction of fainting at 80 mg/kg, ig administered every 2 days for 18 days; assay type: organism-based; settings: in vivo, po, 432 h, time 18 day
[14] = Toxicity in DOX induced BALB/c nude mouse xenografted with human HeLa cells assessed as induction of fainting at 80 mg/kg, ig administered every 2 days for 18 days; assay type: organism-based; settings: in vivo, po, 432 h, time 18 day
HeLa [15] = experiment: Induction of morphological change in human HeLa cells assessed as potentiation of doxorubicin induced cell shrinkage measured after 48 hrs in by CCK-8 assay; assay type: functional, cell-based
Mus musculus [16] = experiment: Effect on DOX induced tissue damage in BALB/c nude mouse xenografted with human HeLa cells assessed as spleen enlargement at 80 mg/kg, ig administered every 2 days for 18 days by H and E staining; assay type: functional, organism-based
HeLa [17] = experiment: Downregulation of MMP-9 protein expression in human HeLa cells after 48 hrs by western blotting analysis; assay type: functional, cell-based
[18] = Decrease in MDR1 gene expression in DOX induced human HeLa cells by RT-PCR analysis; assay type: functional
HeLa [19] = experiment: Antitumor activity against human HeLa cells xenografted in BALB/c nude mouse assessed as potentiation of doxorubicin induced tumor growth inhibition at 80 mg/kg, ig administered every 2 days for 18 days by firefly luciferase based bioluminescence assay; assay type: functional, organism-based; settings: time 18.0 day
HeLa [20] = experiment: Cytotoxicity against human HeLa cells assessed as potentiation of doxorubicin induced cell survival measured after 72 hrs by CCK-8 assay; assay type: functional
Mus musculus [21] = experiment: Effect on DOX induced tissue damage in BALB/c nude mouse xenografted with human HeLa cells assessed as appearance of lesions in glomerular tubule at 80 mg/kg, ig for administered every 2 days for 18 days by H and E staining; assay type: functional, organism-based; settings: Renal glomerulus, time 18.0 day
[22] = Toxicity in DOX induced BALB/c nude mouse xenografted with human HeLa cells assessed as change in body weight at 80 mg/kg, ig administered every 2 days for 18 days; assay type: organism-based; settings: in vivo, po, 432 h, time 18 day
HeLa [23] = experiment: Upregulation of BAX protein expression in human HeLa cells after 48 hrs by western blotting analysis; assay type: functional, cell-based
HeLa [24] = experiment: Downregulation of doxorubicin induced PI3K protein expression in human HeLa cells after 48 hrs by western blotting analysis; assay type: functional, cell-based
HeLa [25] = experiment: Downregulation of AKT protein expression in human HeLa cells after 48 hrs by western blotting analysis; assay type: functional, cell-based
HeLa [26] = experiment: Downregulation of Bcl-2 protein expression in human HeLa cells after 48 hrs by western blotting analysis; assay type: functional, cell-based
HeLa [27] = experiment: Antitumor activity against DOX induced human HeLa cells xenografted in BALB/c nude mouse assessed as induction of apoptosis by measuring increase in TUNEL positive nuclei at 80 mg/kg, ig administered every 2 days for 18 days by TUNEL staining based assay; assay type: functional, organism-based; settings: time 18.0 day
HeLa [28] = experiment: Antitumor activity against human HeLa cells xenografted in BALB/c nude mouse assessed as tumor growth inhibition at 80 mg/kg, ig for administered every 2 days for 18 days by firefly luciferase based bioluminescence assay; assay type: functional, organism-based; settings: time 18.0 day
[29] = Toxicity in DOX induced BALB/c nude mouse xenografted with human HeLa cells assessed as induction of convulsions at 80 mg/kg, ig administered every 2 days for 18 days; assay type: organism-based; settings: in vivo, po, 432 h, time 18 day
Mus musculus [30] = experiment: Effect on DOX induced tissue damage in BALB/c nude mouse xenografted with human HeLa cells assessed as inflammatory cell infiltration in liver at 80 mg/kg, ig administered every 2 days for 18 days by H and E staining; assay type: functional, organism-based; settings: time 18.0 day
HeLa [31] = experiment: Downregulation of MMP-2 protein expression in human HeLa cells after 48 hrs by western blotting analysis; assay type: functional, cell-based
[32] = Decrease in MDR1 gene expression in human HeLa cells by qRT-PCR analysis; assay type: functional; settings: dose 0.017 mol/L; time 48 hrs
HeLa [33] = experiment: Downregulation of doxorubicin induced AKT protein expression in human HeLa cells after 48 hrs by western blotting analysis; assay type: functional, cell-based
HeLa [34] = experiment: Inhibition of potentiation of doxorubicin induced cell migration in human HeLa cells measured upto 48 hrs by electron microscope based Wound healing assay relative to control; assay type: functional; settings: time hrs <=48
HeLa [35] = experiment: Upregulation of doxorubicin induced BAX protein expression in human HeLa cells after 48 hrs by western blotting analysis; assay type: functional, cell-based
[36] = Toxicity in BALB/c nude mouse xenografted with human HeLa cells assessed as induction of incontinence at 80 mg/kg, ig administered every 2 days for 18 days; assay type: organism-based; settings: in vivo, po, 432 h, time 18 day
[37] = Toxicity in BALB/c nude mouse xenografted with human HeLa cells assessed as change in body weight at 80 mg/kg, ig administered every 2 days for 18 days; assay type: organism-based; settings: in vivo, po, 432 h, time 18 day
HeLa [38] = experiment: Downregulation of doxorubicin induced Bcl-2 protein expression in human HeLa cells after 48 hrs by western blotting analysis; assay type: functional, cell-based
HeLa [39] = experiment: Downregulation of doxorubicin induced MMP-9 protein expression in human HeLa cells after 48 hrs by western blotting analysis; assay type: functional, cell-based
HeLa [40] = experiment: Induction of morphological change in human HeLa cells assessed as potentiation of doxorubicin induced reduction in size measured after 48 hrs in presence of doxorubicin by CCK-8 assay; assay type: functional, cell-based
[41] = Toxicity in DOX induced BALB/c nude mouse xenografted with human HeLa cells assessed as induction of incontinence at 80 mg/kg, ig administered every 2 days for 18 days; assay type: organism-based; settings: in vivo, po, 432 h, time 18 day
[42] = Toxicity in DOX induced BALB/c nude mouse xenografted with human HeLa cells assessed as induction of breathing difficulties at 80 mg/kg, ig administered every 2 days for 18 days; assay type: organism-based; settings: in vivo, po, 432 h, time 18 day
HeLa [43] = experiment: Inhibition of hypoxia-inducible factor 1 alpha in DOX induced human HeLa cells assessed as downregulation of protein at 0.017 mmol/L after 48 hrs by Western blotting analysis; assay type: functional
HeLa [44] = experiment: Downregulation of doxorubicin induced MMP-2 protein expression in human HeLa cells after 48 hrs by western blotting analysis; assay type: functional, cell-based
[45] = Toxicity in BALB/c nude mouse xenografted with human HeLa cells assessed as induction of convulsions at 80 mg/kg, ig administered every 2 days for 18 days; assay type: organism-based; settings: in vivo, po, 432 h, time 18 day
HeLa [46] = experiment: Antiproliferative activity against human HeLa cells assessed as inhibition of cell proliferation measured after 48 hrs by CCK-8 assay; assay type: functional, cell-based
HeLa [47] = experiment: Antimigratory activity against human HeLa cells at 0.017 mmol/L measured upto 48 hrs by electron microscope based Wound healing assay relative to control; assay type: functional; settings: time hrs <=48
HeLa [48] = experiment: Downregulation of PI3K protein expression in human HeLa cells after 48 hrs by western blotting analysis; assay type: functional, cell-based
[49] = Toxicity in BALB/c nude mouse xenografted with human HeLa cells assessed as potentiation of doxorubicin induced inflammation in myocardial tissue at 80 mg/kg, ig administered every 2 days for 18 days by H and E staining; assay type: organism-based, Myocardium/plasma; settings: in vivo, po, 432 h, time 18 day
[50] = Toxicity in BALB/c nude mouse xenografted with human HeLa cells assessed as induction of breathing difficulties at 80 mg/kg, ig administered every 2 days for 18 days; assay type: organism-based; settings: in vivo, po, 432 h, time 18 day

COc1cccc2c1C(=O)c1c(O)c3c(c(O)c1C2=O)C[C@@](O)(C(=O)CO)C[C@@H]3O[C@H]1C[C@H](N)[C@H](O)[C@H](C)O1 [DOXORUBICIN]
Activity [1]: Toxic | Activity [2]: Non-Toxic | Activity (HeLa [3]): Active | Activity (HeLa [4]): 2.67 µM | Activity [5]: 8.69 | Activity (HeLa [6]): 57.14% | Activity [7]: Non-Toxic | Activity [8]: Non-Toxic | Activity (HeLa [9]): Active | Activity [10]: Non-Toxic | Activity [11]: Non-Toxic | Activity (HeLa [12]): inactive

OC[C@H]1O[C@@H](OCCc2ccc(O)cc2)[C@H](O)[C@@H](O)[C@@H]1O [SALIDROSIDE]
Activity [13]: Non-Toxic | Activity [14]: Non-Toxic | Activity (HeLa [15]): Active | Activity (Mus musculus [16]): inactive | Activity (HeLa [17]): Active | Activity [18]: 2.76 | Activity (HeLa [19]): Active | Activity (HeLa [20]): >85% | Activity (Mus musculus [21]): inactive | Activity (HeLa [3]): Active | Activity (HeLa [4]): 0.183 µM | Activity [22]: Non-Toxic | Activity (HeLa [23]): Active | Activity (HeLa [24]): Active | Activity (HeLa [25]): Active | Activity (HeLa [26]): Active | Activity (HeLa [27]): Active | Activity (HeLa [28]): Active | Activity [29]: Non-Toxic | Activity (Mus musculus [30]): inactive | Activity (HeLa [31]): Active | Activity [32]: 1.65 | Activity (HeLa [33]): Active | inhibition (INH) (HeLa [34]): 18.95% | Activity (HeLa [35]): Active | Activity [36]: Non-Toxic | Activity [37]: Non-Toxic | Activity (HeLa [38]): Active | Activity (HeLa [39]): Active | Activity (HeLa [40]): Active | Activity [41]: Non-Toxic | Activity [42]: Non-Toxic | Activity (HeLa [43]): Active | Activity (HeLa [44]): Active | Activity [45]: Non-Toxic | Activity (HeLa [9]): Active | IC50 (HeLa [46]): 10.5 µM | Activity (HeLa [47]): 56.34% | Activity (HeLa [48]): Active | Activity [49]: Non-Toxic | Activity [50]: Non-Toxic
